Data from ChEMBL document CHEMBL1201862, “PubChem BioAssay data set” (2004).
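1) Cells in 96-well plates. 2) Compound, 48 h, 5 concentrations. 3) Linear interpolation between surrounding doses. 4) Unreached endpoint = highest concentration. GI50 marks 50% less growth.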 Activity calls are given as the source filed them. No stated cut-off is given here; in the data, active = GI50 up to about 1.1 µM and inactive = higher.

Assays:
Assay in all cases: growth of human tumour cells (NCI), 48 h
KM12 = test system: KM12
A549 = test system: A549
RPMI-8226 = test system: RPMI-8226
HL-60 = test system: HL-60
BT-549 = test system: BT-549
CCRF-CEM = test system: CCRF-CEM
T47D = test system: T47D
OVCAR-8 = test system: OVCAR-8
SR = test system: SR
OVCAR-5 = test system: OVCAR-5
HCC 2998 = test system: HCC 2998
U-251 = test system: U-251
DU-145 = test system: DU-145
A498 = test system: A498
K562 = test system: K562
SNB-19 = test system: SNB-19
SF-295 = test system: SF-295
NCI-H522 = test system: NCI-H522
RXF 393 = test system: RXF 393
NCI/ADR-RES = test system: NCI/ADR-RES
SK-MEL-28 = test system: SK-MEL-28
TK-10 = test system: TK-10
M14 = test system: M14
NCI-H460 = test system: NCI-H460
SNB-75 = test system: SNB-75
OVCAR-3 = test system: OVCAR-3
IGROV-1 = test system: IGROV-1
SN12C = test system: SN12C
HOP-92 = test system: HOP-92
OVCAR-4 = test system: OVCAR-4
SW-620 = test system: SW-620
MDA-N = test system: MDA-N
SK-MEL-2 = test system: SK-MEL-2
Hs-578T = test system: Hs-578T
CAKI-1 = test system: CAKI-1
SF-268 = test system: SF-268
ACHN = test system: ACHN
COLO 205 = test system: COLO 205
UACC-257 = test system: UACC-257
PC-3 = test system: PC-3
HCT-15 = test system: HCT-15
UACC-62 = test system: UACC-62
MOLT-4 = test system: MOLT-4
MCF7 = test system: MCF7
SK-MEL-5 = test system: SK-MEL-5
Malme-3M = test system: Malme-3M
NCI-H226 = test system: NCI-H226
MDA-MB-435 = test system: MDA-MB-435
EKVX = test system: EKVX
SF-539 = test system: SF-539
MDA-MB-231 = test system: MDA-MB-231
LOX IMVI = test system: LOX IMVI
HOP-62 = test system: HOP-62
786-0 = test system: 786-0
NCI-H23 = test system: NCI-H23
UO-31 = test system: UO-31
HCT-116 = test system: HCT-116
HT-29 = test system: HT-29
SK-OV-3 = test system: SK-OV-3

Measured: GI50

Cc1cc(C)c2c(c1)CC1(Cc3c(C)ccc(C)c3C1=O)C2=O (stereo not drawn)
> 100 µM: HCT-15
inactive: KM12 > 100 µM | A549 > 100 µM | RPMI-8226 > 100 µM | HL-60 > 100 µM | BT-549 > 100 µM | CCRF-CEM > 100 µM | T47D > 100 µM | OVCAR-8 > 100 µM | SR > 100 µM | OVCAR-5 > 100 µM | HCC 2998 > 100 µM | U-251 > 100 µM | DU-145 > 100 µM | A498 > 100 µM | K562 > 100 µM | SNB-19 > 100 µM | SF-295 > 100 µM | NCI-H522 > 100 µM | RXF 393 > 100 µM | NCI/ADR-RES > 100 µM | SK-MEL-28 > 100 µM | TK-10 > 100 µM | M14 > 100 µM | NCI-H460 > 100 µM | SNB-75 > 100 µM | OVCAR-3 > 100 µM | IGROV-1 > 100 µM | SN12C > 100 µM | HOP-92 > 100 µM | OVCAR-4 > 100 µM | SW-620 > 100 µM | MDA-N > 100 µM | SK-MEL-2 > 100 µM | Hs-578T > 100 µM | CAKI-1 > 100 µM | SF-268 > 100 µM | ACHN > 100 µM | COLO 205 > 100 µM | UACC-257 > 100 µM | PC-3 > 100 µM | UACC-62 > 100 µM | MOLT-4 > 100 µM | MCF7 > 100 µM | SK-MEL-5 > 100 µM | Malme-3M > 100 µM | NCI-H226 > 100 µM | MDA-MB-435 > 100 µM | EKVX > 100 µM | SF-539 > 100 µM | MDA-MB-231 > 100 µM

CCOC(=O)Oc1ccc2c(c1)c(=O)c1c(NCCCN(CC)CC)ccc3nnn2c31
3.09 µM: HCT-15
active: KM12 0.982 µM | CCRF-CEM 0.889 µM | DU-145 0.951 µM | UO-31 0.598 µM | NCI-H460 0.337 µM | OVCAR-4 0.33 µM | CAKI-1 0.53 µM | ACHN 0.82 µM | PC-3 0.303 µM | MOLT-4 0.745 µM | MCF7 0.929 µM
inactive: A549 1.64 µM | RPMI-8226 2.17 µM | BT-549 17.5 µM | T47D 16.8 µM | OVCAR-8 3.48 µM | SR 1.57 µM | OVCAR-5 16.6 µM | LOX IMVI 2.52 µM | HCC 2998 1.43 µM | U-251 10.4 µM | HOP-62 1.75 µM | A498 11.1 µM | 786-0 1.59 µM | K562 5.13 µM | SNB-19 5.2 µM | NCI-H23 13.3 µM | SF-295 1.82 µM | NCI-H522 1.56 µM | RXF 393 1.81 µM | NCI/ADR-RES 7.76 µM | HCT-116 1.37 µM | SK-MEL-28 18.6 µM | TK-10 2.79 µM | M14 12.3 µM | OVCAR-3 5.5 µM | IGROV-1 5.36 µM | SN12C 3.67 µM | HOP-92 6.76 µM | SW-620 2.24 µM | MDA-N 1.19 µM | SK-MEL-2 16.2 µM | Hs-578T 20.5 µM | SF-268 11.6 µM | HT-29 2.55 µM | COLO 205 11.7 µM | UACC-257 15.4 µM | UACC-62 15.3 µM | SK-MEL-5 10.2 µM | Malme-3M 13.4 µM | NCI-H226 7.18 µM | SK-OV-3 11.3 µM | MDA-MB-435 5.45 µM | EKVX 10.7 µM | SF-539 5.62 µM | MDA-MB-231 1.12 µM
